# According to patent US11318152B2, “Pharmaceutical agent for improving autism spectrum disorder and mental disease” (MATSUTANI CHEMICAL INDUSTRY CO., LTD., priority 2018, dated 2022):
# Experiments:
# [1] = tested on: paraventricular nucleus (PVN), supraoptic nucleus (SON) and new region of the hypothalamus; test: c-Fos immunostaining of hypothalamus sections after oral administration; format: in vivo, C57BL/6J male mice; details: oral 1 or 3 g/kg, fasted mice, 90 minutes after administration, vs saline (FIG. 1A)
# Experimental: (§1) For brain regions that are activated by the oral administration of D-allulose, the expression levels of a neuronal activation marker (c-Fos) were analyzed by the immunostaining method. c-Fos is one of immediate early genes, is a nuclear protein whose expression level increases along with activation of nerves, and thus can be utilized as a neuronal activation marker. C57BL/6J male mice were used as experimental animals and were acclimatized to an environment through preliminary breeding and handling for 1 week or more in individual cages. Saline or D-allulose (1 or 3 g/kg) was orally intragastrically administered to the mice which were fasted for one night, and 90 minutes after the administration, the mice were perfusion fixed in a 4% paraformaldehyde solution and the brains were resected. The organs were postfixed in a 4% paraformaldehyde solution to prepare frozen section specimens. This frozen section specimen was used to immunostain c-Fos. In the case of double immunostaining for oxytocin/vasopressin and c-Fos, the perfusion fixation and the postfixation were conducted in a mixed solution of 4% paraformaldehyde and 0.2% picric acid. Note that in the experiment for analyzing c-FOS expression level (FIG. 1A to FIG. 1D), C57BL/6J male mice of saline group: n=7, 1 g/kg and 3 g/kg D-allulose group: n=5 each were used. […]
# [2] = tested on: vasopressin mRNA; test: vasopressin mRNA expression in hypothalamus, quantitative real-time PCR; format: in vivo, C57BL/6J male mice; details: oral 3 g/kg, 2 hours after administration, vs saline-administered group, relative to 36b4 (FIG. 5)
# Experimental: (§2) C57BL/6J male mice (saline group: n=8, D-allulose group: n=9) were used as experimental animals and were acclimatized to an environment through preliminary breeding and handling for 1 week or more in individual cages. Saline or D-allulose (3 g/kg) was orally intragastrically administered to the mice which were fasted for one night, and 2 hours after the administration, the brain's hypothalamus was resected under anesthesia. cDNA was synthesized using the total RNA in hypothalamus as a template. The mRNA expression levels of oxytocin and vasopressin were quantified by the quantitative real-time PCR method. As the housekeeping gene, 36b4 was used. The mRNA expression levels were quantified in accordance with the ΔΔCt method. The target gene expression level in each sample was corrected with the expression level of 36b4 to obtain the relative expression level to 36b4 (ΔCT=the CT value of 36b4−the CT value of the target gene, the relative expression level=2ΔCT).
# (§3) Moreover, the mRNA expression level ratio with the average value of the relative expression level of the saline group being set to 1 (the average value of the relative gene expression level of the D-allulose group to 36b4/the average value of the relative expression level of the saline group to 36b4) was obtained to analyze the change in gene expression level in the administration of D-allulose. […]
# [3] = tested on: oxytocin (OXT) neurons; test: double immunostaining for oxytocin and c-Fos after oral administration; format: in vivo, C57BL/6J male mice; details: oral 3 g/kg, 90 minutes after administration
# Experimental: as §1, with “In” for “Note that in”, “c-Fos positive neurons in the oxytocin (OXT) neurons of paraventricular nucleus (PVN)” for “c-FOS expression level”, “2A and” for “1A to”, “2B),” for “1D),”, “n=4,” for “n=7, 1 g/kg and”, “n=6 were used. In the experiment for analyzing c-Fos positive neurons in the vasopressin (AVP) neurons of paraventricular nucleus (PVN) (FIG. 2C and FIG. 2D), C57BL/6J male mice of saline group: n=4, 3 g/kg D-allulose group: n=6 were used. In the experiment for analyzing c-Fos positive neurons in the oxytocin (OXT) neurons or vasopressin (AVP) neurons of paraventricular nucleus (PVN) (FIG. 3A and FIG. 3B), C57BL/6J male mice of saline group n=4, 3 g/kg D-allulose group: n=6 were used. In the experiment for analyzing c-Fos positive neurons in the oxytocin (OXT) neurons or vasopressin (AVP) neurons of the new region (FIG. 4A and FIG. 4B), C57BL/6J male mice of saline group: n=4, 3 g/kg D-allulose group: n=6” for “n=5 each”
# [4] = tested on: vasopressin (AVP) neurons; test: double immunostaining for vasopressin and c-Fos after oral administration; format: in vivo, C57BL/6J male mice; details: oral 3 g/kg, 90 minutes after administration
# Experimental: For brain regions that are activated by the oral administration of D-allulose, the expression levels of a neuronal activation marker (c-Fos) were analyzed by the immunostaining method. c-Fos is one of immediate early genes, is a nuclear protein whose expression level increases along with activation of nerves, and thus can be utilized as a neuronal activation marker. C57BL/6J male mice were used as experimental animals and were acclimatized to an environment through preliminary breeding and handling for 1 week or more in individual cages. Saline or D-allulose (1 or 3 g/kg) was orally intragastrically administered to the mice which were fasted for one night, and 90 minutes after the administration, the mice were perfusion fixed in a 4% paraformaldehyde solution and the brains were resected. The organs were postfixed in a 4% paraformaldehyde solution to prepare frozen section specimens. This frozen section specimen was used to immunostain c-Fos. In the case of double immunostaining for oxytocin/vasopressin and c-Fos, the perfusion fixation and the postfixation were conducted in a mixed solution of 4% paraformaldehyde and 0.2% picric acid. In the experiment for analyzing c-Fos positive neurons in the vasopressin (AVP) neurons of paraventricular nucleus (PVN) (FIG. 2C and FIG. 2D), C57BL/6J male mice of saline group: n=4, 3 g/kg D-allulose group: n=6 were used. In the experiment for analyzing c-Fos positive neurons in the oxytocin (OXT) neurons or vasopressin (AVP) neurons of paraventricular nucleus (PVN) (FIG. 3A and FIG. 3B), C57BL/6J male mice of saline group n=4, 3 g/kg D-allulose group: n=6 were used. In the experiment for analyzing c-Fos positive neurons in the oxytocin (OXT) neurons or vasopressin (AVP) neurons of the new region (FIG. 4A and FIG. 4B), C57BL/6J male mice of saline group: n=4, 3 g/kg D-allulose group: n=6 were used. The obtained results are represented by the average values and the standard errors, the statistical testing used the unpaired t-test, * is described by the P value of less than 5% and ** is described by the P value of less than 1%.
# [5] = tested on: C57BL/6J male mice; test: Sociality test (social interaction test); format: in vivo; details: 10 minutes, vs saline, p<0.05 (FIG. 7B)
# Experimental: The sociality test (also called the social interaction test) is an open field test using 2 individual mice that meet for the first time in order to investigate the sociality. The fundamental procedure of the sociality test is the same as that of the open field test using 1 individual member. However, at the time of starting the behavioral observation, mice are placed at the opposing corners of the field and their moving is recorded as moving picture for 10 minutes. This test is intended to evaluate the sociality of mice by measuring frequencies and times of social behaviors such as sniffing, grooming, attack, and tail-rattling between 2 individual members. C57BL/6J male mice (8-week old) were bred for 1 week under a free-feeding condition with a light-dark cycle of 12 hours and were subjected to the open field and sociality tests. Handling and gavage training was conducted for 4 days before the test. In order to evaluate the sociality with a same-sex mouse, each mouse was placed together with a mouse (new mouse) which it met for the first time in a breeding cage (27×27×20 cm^3) and an accumulation time of the exploratory behavior against the new mouse during an exploratory behavior time of 10 minutes was measured.
# [6] = tested on: oxytocin mRNA; test: oxytocin mRNA expression in hypothalamus, quantitative real-time PCR; format: in vivo, C57BL/6J male mice; details: oral 3 g/kg, 2 hours after administration, vs saline-administered group, relative to 36b4 (FIG. 5)
# Experimental: as §2, §3
# [7] = tested on: C57BL/6J male mice; test: Open field test; format: in vivo; details: 5 minutes exploration
# Description: The open field test is a test that evaluates spontaneous activity, anxiety-like behavior, and the like in a novel environment by measuring the distance traveled, the number of rearings, the stereotyped behavior, the time spent in the center section, and the like under the novel environment. A mouse is placed in an open field, which is a novel and bright environment for a mouse, and is allowed to freely explore the open field for a certain period of time. The open field has a circular or square shape, and the size, in the case of a square, varies from a side of over 1 m to 30 cm or less. The experiment time is approximately 5 minutes in general, and significant overactivity, dormancy, and the like can be detected through observation for such a short period of time. In addition, a change in the behavior of an animal over time under a novel environment can be observed by recording for a long period of time. Since it is said that mice get accustomed to the open field environment by 30 minutes to approximately 2 hours, the experiment time is often set between 30 minutes to 3 hours. Also, the open field test is often used for analyzing the phenotyping of gene-modified mice and testing the reactivity to pharmaceutical agents. […] The duration of time spent in the center square (9×9 […]) during an exploratory behavior time of 5 minutes was measured.
smiles,measurement,setting,value
O=C(CO)[C@H](O)[C@H](O)[C@H](O)CO [D-allulose],"c-Fos expression level in the paraventricular nucleus (PVN), the supraoptic nucleus (SON), and a new region of the hypothalamus",[1],significantly facilitated
same,expression of the mRNA of vasopressin in the hypothalamus,[2],significantly enhanced
same,c-Fos expression level in the oxytocin (OXT) neuron of the paraventricular nucleus (PVN),"[3]; vs saline (FIGS. 2A, 2B)",significantly increased
same,activation (c-Fos) of the oxytocin neurons of the supraoptic nucleus (SON),"[3]; vs saline (FIGS. 3A, 3B)",activated
same,activation (c-Fos) of the oxytocin neurons in the new region of the hypothalamus,"[3]; vs saline (FIGS. 4A, 4B)",activated
same,activation (c-Fos) of the vasopressin (AVP) neuron of the paraventricular nucleus (PVN),"[4]; vs saline (FIGS. 2C, 2D)",activated
same,activation (c-Fos) of the vasopressin neurons of the supraoptic nucleus (SON),"[4]; vs saline (FIGS. 3A, 3B)",activated
same,activation (c-Fos) of the vasopressin neurons in the new region of the hypothalamus,"[4]; vs saline (FIGS. 4A, 4B)",activated
same,social behavior: accumulation time of exploratory behavior against the new mouse,[5]; 1 g/kg oral,significantly facilitated
same,social behavior: accumulation time of exploratory behavior against the new mouse,[5]; 3 g/kg oral,significantly facilitated
same,expression of the mRNA of oxytocin in the hypothalamus,[6],significantly enhanced
same,anxiety behavior: duration of time spent in the center square,"[7]; 1 g/kg oral 30 minutes before test, vs saline (FIG. 6B)",no significant result
same,anxiety behavior: duration of time spent in the center square,"[7]; 3 g/kg oral 30 minutes before test, vs saline, p<0.05 (FIG. 6B)",significantly improved
